Experimental data as given in patent publication US20040170645A1, “Seaweed extract composition for retardation of cardiovascular disorders and preservation of healthy cardiovascular function” (priority 2002, published 2004).

Test system: thrombus in the right jugular vein
Assay: Thrombosis test (jugular vein, formalin/methanol initiated)
Assay type: in vivo, rat
Conditions: 7.5 mg/kg oral, 4 h
Experimental: One hundred and two male Wistar rats, weighing 312±64 g (±SD), were handled and housed according to the Principles of Animal Care set out by the Canadian Federation of Biological Societies. The animals were fasted overnight prior to treatment and were anaesthetized with barbital and methoxyflurane for experimental procedures.
The rhamnan-arginine complex was weighed fresh daily. Six to 8 rats were treated per day. […] Thus when the stomach tube was placed in the stomach the drugs were first introduced into the stomach followed by saline to give a total volume of approximately 0.4 ml. In the heparin alone group, heparin was administered in a volume of 0.1-0.2 ml followed by 0.2 ml saline. Control group was saline alone.
The thrombosis test was performed by a modification of the procedure by Blake et al. For animals exposed to treatment for 4 h, a thrombus was initiated in the right jugular vein by application of 10% formalin in 65% methanol to the exposed adventitial surface. Immediately following, drugs were introduced into the stomach by stomach tube. […] The clot was scored as + (hard clot) if the vessel is blocked and remained blocked despite examination with a cotton pledget. […] The thrombus was scored as − (negative) if blood was seen to flow freely in the vessel.
Thrombosis data is expressed as a percentage with 95% confidence intervals. […] Other data is expressed as mean ±SE. […]

Heparin was tested, and the “incidence of hard clots” value was “reduced the percentage of incidence of hard clots” and the “total incidence of thrombosis” value was “little or no effect”.
